Assay results published in patent US8097634B2, “Azacyclic derivatives” (Hoffmann-La Roche Inc., priority 2010, dated 2012).

Target: T1, human HSL (Homo sapiens, UniProt Q05469)
T1 construct: fused on or other part: C-terminal His6 tag
T1 sequence (Q05469 1-1076): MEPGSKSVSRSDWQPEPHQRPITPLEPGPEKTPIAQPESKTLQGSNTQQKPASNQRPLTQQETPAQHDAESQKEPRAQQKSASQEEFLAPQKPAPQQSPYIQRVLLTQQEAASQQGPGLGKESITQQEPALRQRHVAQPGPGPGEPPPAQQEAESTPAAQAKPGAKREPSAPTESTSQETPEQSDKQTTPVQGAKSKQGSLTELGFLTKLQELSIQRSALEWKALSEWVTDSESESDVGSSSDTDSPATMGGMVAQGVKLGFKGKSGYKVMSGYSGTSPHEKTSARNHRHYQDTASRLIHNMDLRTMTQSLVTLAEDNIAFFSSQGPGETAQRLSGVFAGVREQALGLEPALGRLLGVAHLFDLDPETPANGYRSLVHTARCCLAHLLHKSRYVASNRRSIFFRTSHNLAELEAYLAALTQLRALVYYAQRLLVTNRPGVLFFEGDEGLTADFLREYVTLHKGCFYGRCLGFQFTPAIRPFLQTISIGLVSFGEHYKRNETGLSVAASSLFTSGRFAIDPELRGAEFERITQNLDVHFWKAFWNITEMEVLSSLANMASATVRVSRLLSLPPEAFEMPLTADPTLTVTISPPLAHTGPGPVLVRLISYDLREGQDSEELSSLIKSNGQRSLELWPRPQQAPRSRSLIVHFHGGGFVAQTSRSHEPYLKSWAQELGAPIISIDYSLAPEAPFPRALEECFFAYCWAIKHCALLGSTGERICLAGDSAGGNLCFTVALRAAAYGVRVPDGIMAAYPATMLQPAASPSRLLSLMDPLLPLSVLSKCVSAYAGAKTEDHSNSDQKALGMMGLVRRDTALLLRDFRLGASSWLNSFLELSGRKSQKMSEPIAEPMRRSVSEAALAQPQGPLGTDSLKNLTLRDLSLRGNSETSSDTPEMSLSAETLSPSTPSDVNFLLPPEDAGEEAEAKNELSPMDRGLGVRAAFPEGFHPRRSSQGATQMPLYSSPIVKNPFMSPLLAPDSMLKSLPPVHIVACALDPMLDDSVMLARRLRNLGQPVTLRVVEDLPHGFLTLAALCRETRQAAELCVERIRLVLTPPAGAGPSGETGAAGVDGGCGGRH
Test: Human Hormone-Sensitive Lipase (HSL) enzyme inhibition assay (colorimetric, DMPT substrate)
Assay type: biochemical
Conditions: human full length HSL-His6, 2,3-dimercapto-1-propanol tributyrate substrate, 37° C. 20 minutes; read-out: HSL hum IC50
Method: Production of Human full length Hormone Sensitive Lipase-His^6:
1) Cloning: cDNA was prepared from commercial human brain polyA+ RNA and used as a template in overlapping PCR to generate a full length human HSL ORF with a 3′-His6 tag. This full length insert was cloned into the pFast-BAC vector and the DNA-sequence of several single clones was verified. DNA from a correct full length clone with the 3′His6 tag was used to transform the E. coli strain DH10BAC. Resulting bacmid DNA was used to generate a titered baculovirus stock for protein generation. The sequence of the encoded HSL conforms to Swissprot entry Q05469, with the additional C-terminal His6-tag.
2) Protein purification: Culture: 5.5 L, High 5 cells expressing human full length HSL-His^6, 48 hr., containing 25 μM E-64. Cell count: […], 90% viable.
Cells were thawed. On ice, cells were suspended in Base Buffer containing 10% glycerol, 25 mM Tris-Cl, 300 mM NaCl, 10 mM imidazole, 10 mM 2-mercaptoethanol, 2 μg pepstatin/ml, 2 μg leupeptin/ml, 2 μg antipain/ml, pH 8.0 at 4° C. in a final volume of 475 ml with 3.75×10^7 cells/ml. […] was done at 3×30 sec., Lubrol PX was added to 0.2% final concentration followed by stirring for 15 min. at 4° C. and centrifugation at 25 k×g, 60 min., 4° C. Soluble proteins were mixed with 60 ml of pre-washed and equilibrated Ni-NTA Agarose (Qiagen 30210) followed by tumbling end-over-end, 45 min., 4° C., centrifugation 1000 rpm 5 min and letting resin settle 5 min. Supernatant was removed, the resin washed in the centrifuge vessel using 5 volumes of Base Buffer containing 0.2% Lubrol PX. Centrifugation was done again, then the supernatant discarded. The resin was poured onto a 0.8 μm membrane in a disposable filter unit (Nalge 450-0080), and washed with 5 volumes of Base Buffer containing 0.2% Lubrol PX. It was then washed with 30 volumes of Base Buffer containing 60 mM imidazole pH 7.5 at 4° C. The protein was eluated with 5 volumes of 25 mM Tris-Cl, 300 mM NaCl, 200 mM imidazole, 10 mM 2-mercaptoethanol, pH 7.5 at 4° C. by tumbling resin with buffer end-over-end, 30 min., 4° C. The resin was captured on a 0.2 μm membrane disposable filter unit (Millipore SCGP U02 RE) and the eluate collected in the reservoir. The eluate was concentrated using a 30 k MWCO centrifugal filter device (Sartorius Vivascience Vivacell 100, VC1022), to 20 ml. It was then dialyzed overnight at 4° C., two times against 2 L of 10% glycerol, 25 mM Tris-Cl, 300 mM NaCl, 0.2 mM EDTA, 0.2 mM DTT, pH 7.5 at 4° C. The protein was filtered using a 0.22 μm disposable filter unit (Millipore SCGP00525). The protein concentration was calculated from absorbance at 280 nm, using 280=0.67 cm-1 mg-1. Yield was 235 mg, total. The protein was stored at −80° C.
Human Hormone-Sensitive Lipase (HSL) enzyme inhibition assay:
HSL enzyme activity was measured by a colorimetric assay using 2,3-dimercapto-1-propanol tributyrate (Aldrich, St. Louis, Mo.) as a substrate. Typically, 1.5 mM 2,3-dimercapto-1-propanol tributyrate (DMPT) in 100 mM MOPS, pH 7.2, 0.2 mg/ml fatty acid-free BSA was prepared by sonication at 4° C. to homogenous suspension. Test compounds (2 mM stock in DMSO) were diluted 3 fold in series in DMSO. Compound solutions were diluted 24 fold in 1.5 mM DMPT containing solution and 18 ul per well was added to 384-well microplates (Corning Costar). Twelve microliters per well of human HSL (15 ug/ml) was added and the reaction mixture was incubated at 37° C. for 20 minutes. Six microliters of 12 mM dithio-bis-(2-nitrobenzoic acid) (DTNB) in DMSO plus 1.2% SDS and 0.6% Triton X-100 were added and the mixture was incubated at room temperature for 15 minutes. Product production was monitored by reading absorbance at 405 nm on an Envision Reader (PerkinElmer Life and Analytical Sciences, Shelton, Conn.).

SMILES | IC50 [µM]
O=C1CC2(CCN1Cc1ccccc1)CCN(c1ccc(OC(F)(F)F)cc1)C2=O (stereo not drawn) [Example 1, 8-Benzyl-2-(4-trifluoromethoxy-phenyl)-2,8-diaza-spiro[4.5]decane-1,7-dione] | 0.27
CCCN1CCC2(CCN(c3ccc(OC(F)(F)F)cc3)C2=O)CC1=O (stereo not drawn) [Example 2, 8-Propyl-2-(4-trifluoromethoxy-phenyl)-2,8-diaza-spiro[4.5]decane-1,7-dione] | 0.25
O=C1CC2(CCN(c3ccc(OC(F)(F)F)cc3)C2=O)CCN1S(=O)(=O)c1ccccc1Cl (stereo not drawn) [Example 3, 8-(2-Chloro-benzenesulfonyl)-2-(4-trifluoromethoxy-phenyl)-2,8-diaza-spiro[4.5]decane-1,7-dione] | 0.03
CC(C)CS(=O)(=O)N1CCC2(CCN(c3ccc(OC(F)(F)F)cc3)C2=O)CC1=O (stereo not drawn) [Example 4, 8-(2-Methyl-propane-1-sulfonyl)-2-(4-trifluoromethoxy-phenyl)-2,8-diaza-spiro[4.5]decane-1,7-dione] | 0.16
CC(C)(C)CC(=O)N1CCC2(CCN(c3ccc(OC(F)(F)F)cc3)C2=O)CC1=O (stereo not drawn) [Example 5, 8-(3,3-Dimethyl-butyryl)-2-(4-trifluoromethoxy-phenyl)-2,8-diaza-spiro[4.5]decane-1,7-dione] | 0.11
CN1CCC2(CCN(c3ccc(OC(F)(F)F)cc3)C2=O)CC1=O (stereo not drawn) [Example 6, 8-Methyl-2-(4-trifluoromethoxy-phenyl)-2,8-diaza-spiro[4.5]decane-1,7-dione] | 6.02
CCN1CCC2(CCN(c3ccc(OC(F)(F)F)cc3)C2=O)CC1=O (stereo not drawn) [Example 7, 8-Ethyl-2-(4-trifluoromethoxy-phenyl)-2,8-diaza-spiro[4.5]decane-1,7-dione] | 0.81
CCCCN1CCC2(CCN(c3ccc(OC(F)(F)F)cc3)C2=O)CC1=O (stereo not drawn) [Example 8, 8-Butyl-2-(4-trifluoromethoxy-phenyl)-2,8-diaza-spiro[4.5]decane-1,7-dione] | 0.1
CC(C)(C)CN1CCC2(CCN(c3ccc(OC(F)(F)F)cc3)C2=O)CC1=O (stereo not drawn) [Example 9, 8-(2,2-Dimethyl-propyl)-2-(4-trifluoromethoxy-phenyl)-2,8-diaza-spiro[4.5]decane-1,7-dione] | 0.08
O=C1CC2(CCN(c3ccc(CC(F)(F)F)cc3)C2=O)CCN1S(=O)(=O)c1ccccc1Cl (stereo not drawn) [Example 10, 8-(2-chlorophenylsulfonyl)-2-(4-(2,2,2-trifluoroethyl)phenyl)-2,8-diazaspiro[4.5]decane-1,7-dione] | 0.03
CC(C)(C)CC(=O)N1CCC2(CCN(c3ccc(CC(F)(F)F)cc3)C2=O)CC1=O (stereo not drawn) [Example 11, 8-(3,3-dimethylbutanoyl)-2-(4-(2,2,2-trifluoroethyl)phenyl)-2,8-diazaspiro[4.5]decane-1,7-dione] | 0.06
CC(C)(C)CC(=O)N1CCC2(CCN(c3ccc(OCC(F)(F)F)cc3)C2=O)CC1=O (stereo not drawn) [Example 12, 8-(3,3-dimethylbutanoyl)-2-(4-(2,2,2-trifluoroethoxy)phenyl)-2,8-diazaspiro[4.5]decane-1,7-dione] | 0.14
